Square brackets hold non-standard residues; d marks the D form. Peptide text beside a SMILES is read from it.
How the values were obtained:
[1] = target: T1, S. cerevisiae (yeast) cells expressing SRIF receptors (Rattus norvegicus, UniProt P30680); assay: Yeast bioassay for SRIF antagonist activity (LY364 cells growing in response to SRIF, zone of growth inhibition); type: cell-based; conditions: Sample type 4th iteration; 10 μL of 5 mg/mL on disk, SRIF 10 nM, read after 3 days
T1 construct: expressed in transfected cells; host or cells: S. cerevisiae strain LY364
T1 sequence (P30680 whole entry): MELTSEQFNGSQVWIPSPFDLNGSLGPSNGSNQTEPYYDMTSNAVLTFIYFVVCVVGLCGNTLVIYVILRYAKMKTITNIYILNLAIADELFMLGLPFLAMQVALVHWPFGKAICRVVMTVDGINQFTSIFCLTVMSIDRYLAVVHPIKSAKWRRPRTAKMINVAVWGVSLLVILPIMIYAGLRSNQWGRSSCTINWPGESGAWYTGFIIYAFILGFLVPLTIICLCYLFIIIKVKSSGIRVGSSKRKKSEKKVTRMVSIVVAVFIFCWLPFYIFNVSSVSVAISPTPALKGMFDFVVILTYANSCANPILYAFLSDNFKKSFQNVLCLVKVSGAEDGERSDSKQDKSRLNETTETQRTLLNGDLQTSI
Text: SRIF antagonist assay using S. cerevisiae (yeast) cells expressing SRIF receptors that grow in response to SRIF
Agar plates containing LY364 cells that are growing in the presence of added SRIF are the basis for a sensitive SRIF antagonist assay, whereby zones of growth inhibition result from the addition of SRIF antagonists to the surface of the agar plate (see L. A. Price, et al., Molecular and Cellular Biology, 15, 6188-6195, 1995, incorporated herein by reference).
In this assay, LY364 cells are grown overnight in 2 mL of synthetic complete(SC) medium (3.4 g/L YNB without amino acids and ammonium sulfate, 10 g/L ammonium sulfate and 1.4 g/L CSM-ura-trp) with glucose (2%) and without uracil and tryptophan. These cells are washed and cultured for 4 to 8 hours in 5 mL of SC medium with lactate (3%) and without uracil and tryptophan, and finally grown overnight in 5 mL of SC medium with galactose (2%) and without uracil and tryptophan. Molten (50° C.) SC agar medium with galactose (2%) and without uracil, tryptophan and histidine is adjusted to pH 6.8 with KOH, mixed with 2×10^4 cells/mL and SRIF (S-14, 10 nM) and poured into square (20×20 cm) petri dishes. Sterile filter disks are placed on the surface of the agar, and saturated with 10 μL of water or DMSO containing 5 mg/mL test peptides. After three days, the plates display a uniform cloudy background of LY264 cells growing in response to the added SRIF. […] This zone is quantified by measuring its diameter (mm), which varies according to the potency of the SRIF antagonist. Those peptides or mixtures of peptides displaying the largest zones of inhibition are further characterized.
Values are compared among samples in the same experiment, as the degree of yeast growth varies somewhat from assay to assay. For the first five sample types, in which progressively less complex mixtures of peptides are found, this assay is the primary determining factor in choosing which samples form the basis of subsequent syntheses.
Plates are read after 3 days. Samples shown in Table I in bold type are chosen for further synthesis. In Table I, all amino acids are D-amino acids and dashes represent undefined amino acid residues.

Male Sprague-Dawley rats [2] = assay: Serum growth hormone levels in anaesthetized rats (peptide 1, BIM 23014C); type: in vivo, rat
Description: Evaluation in anaesthetized rats. Male Sprague-Dawley rats are anaesthetized with Sagatal and fitted so as to allow efficient intravenous treatment with control and test compounds as well as frequent blood sampling. Blood samples are tested for growth hormone (GH) levels by radioimmunoassay. Thirty minutes after the initiation of blood sampling, rats are given 5 μg, 25 μg or 50 μg of peptide 1.

Male Sprague-Dawley rats [3] = assay: Spontaneous growth hormone secretory pulses in conscious rats; type: in vivo, rat; conditions: 300 μg/hr i.v. infusion for two hours
Description: Evaluation in conscious rats. Male Sprague-Dawley rats are fitted so as to allow efficient intravenous treatment with control and test compounds as well as frequent blood sampling. Blood samples are tested for growth hormone (GH) levels by radioimmunoassay. Blood samples are taken over a 12 hour period. At a 6 hour time point, peptide 1 is infused intravenously (300 μg/hr) into conscious, freely moving male rats for two hours. Control animals receive saline infusions over the same time period. […] It is known, SRIF is required for growth hormone pulsatility and that an SRIF antagonist abolishes said pulsatility (see Tannenbaum, G. S. and Ling, N., Endocrinology, 115, 1952-1957, 1984, incorporated herein by reference).

For `CC[C@@H](C)[C@@H](NC(=O)[C@@H](Cc1ccccc1)NC(=O)[C@@H](Cc1c[nH]cn1)NC(C)=O)C(=O)N[C@H](CCCNC(=N)N)C(=O)N[C@H](Cc1c[nH]c2ccccc12)C(=O)N[C@H](Cc1ccccc1)C(N)=O` [Peptide 1, h-f-i-r-w-f] (Ac-[dH][dF][dI][dR][dW][dF]-NH2), the “Inhibition Zone” value [1] was 18 mm, the SGH (Male Sprague-Dawley rats [2]; 5 μg group, 90 min (time of 2nd peptide 1 dose, after BIM 23014C)) was 2.4 ng/mL and the SGH (Male Sprague-Dawley rats [2]; 5 μg peptide 1 at 30 min, sample 35 min) was 17.5 ng/mL. It also gave an SGH (Male Sprague-Dawley rats [2]; 5 μg peptide 1 at 30 min, sample 40 min) of 14.9 ng/mL, an SGH (Male Sprague-Dawley rats [2]; 5 μg peptide 1 at 30 min, sample 45 min) of 15.7 ng/mL and an SGH (Male Sprague-Dawley rats [2]; 5 μg peptide 1 group, i.v., 30 min (time of 1st peptide 1 dose)) of 12.2 ng/mL. The “serum GH levels after first dose” value (Male Sprague-Dawley rats [2]; 5 μg, 25 μg or 50 μg i.v. at 30 min) was “significant increase in serum GH levels resulting from the highest dose”, the SGH (Male Sprague-Dawley rats [2]; 25 μg group, 90 min (time of 2nd peptide 1 dose, after BIM 23014C)) was 5.1 ng/mL and the SGH (Male Sprague-Dawley rats [2]; 25 μg peptide 1 at 30 min, sample 35 min) was 18.4 ng/mL. It also gave an SGH (Male Sprague-Dawley rats [2]; 25 μg peptide 1 at 30 min, sample 40 min) of 17.5 ng/mL, an SGH (Male Sprague-Dawley rats [2]; 25 μg peptide 1 at 30 min, sample 45 min) of 14.0 ng/mL and an SGH (Male Sprague-Dawley rats [2]; 25 μg peptide 1 group, i.v., 30 min (time of 1st peptide 1 dose)) of 16.6 ng/mL. The SGH (Male Sprague-Dawley rats [2]; 50 μg group, 90 min (time of 2nd peptide 1 dose, after BIM 23014C)) was 1.9 ng/mL, the SGH (Male Sprague-Dawley rats [2]; 50 μg peptide 1 at 30 min, sample 35 min) was 50.2 ng/mL and the SGH (Male Sprague-Dawley rats [2]; 50 μg peptide 1 at 30 min, sample 40 min) was 23.4 ng/mL. The SGH (Male Sprague-Dawley rats [2]; 50 μg peptide 1 at 30 min, sample 45 min) was 15.5 ng/mL, the SGH (Male Sprague-Dawley rats [2]; 50 μg peptide 1 group, i.v., 30 min (time of 1st peptide 1 dose)) was 19.7 ng/mL and the SGH (Male Sprague-Dawley rats [2]; 2nd dose 5 μg peptide 1 at 90 min after BIM 23014C, sample 95 min) was 3.1 ng/mL. For the same molecule, the SGH (Male Sprague-Dawley rats [2]; 2nd dose 5 μg peptide 1 at 90 min after BIM 23014C, sample 100 min) was 1.7 ng/mL, the SGH (Male Sprague-Dawley rats [2]; 2nd dose 5 μg peptide 1 at 90 min after BIM 23014C, sample 105 min) was 1.7 ng/mL and the SGH (Male Sprague-Dawley rats [2]; 2nd dose 5 μg peptide 1 at 90 min after BIM 23014C, sample 135 min) was 1.1 ng/mL. The SGH (Male Sprague-Dawley rats [2]; 2nd dose 25 μg peptide 1 at 90 min after BIM 23014C, sample 95 min) was 11.4 ng/mL, the SGH (Male Sprague-Dawley rats [2]; 2nd dose 25 μg peptide 1 at 90 min after BIM 23014C, sample 100 min) was 10.5 ng/mL and the SGH (Male Sprague-Dawley rats [2]; 2nd dose 25 μg peptide 1 at 90 min after BIM 23014C, sample 105 min) was 7.9 ng/mL. The SGH (Male Sprague-Dawley rats [2]; 2nd dose 25 μg peptide 1 at 90 min after BIM 23014C, sample 135 min) was 5.2 ng/mL, the SGH (Male Sprague-Dawley rats [2]; 2nd dose 50 μg peptide 1 at 90 min after BIM 23014C, sample 95 min) was 67.3 ng/mL and the SGH (Male Sprague-Dawley rats [2]; 2nd dose 50 μg peptide 1 at 90 min after BIM 23014C, sample 100 min) was 31.8 ng/mL. For the same molecule, the SGH (Male Sprague-Dawley rats [2]; 2nd dose 50 μg peptide 1 at 90 min after BIM 23014C, sample 105 min) was 10.5 ng/mL, the SGH (Male Sprague-Dawley rats [2]; 2nd dose 50 μg peptide 1 at 90 min after BIM 23014C, sample 135 min) was 2.6 ng/mL and the “serum GH levels after second dose” value (Male Sprague-Dawley rats [2]; second dose 5 μg, 25 μg or 50 μg after BIM 23014C) was “even greater increase in serum GH levels from the highest dose”. The “spontaneous growth hormone secretory pulses” value (Male Sprague-Dawley rats [3]) was “abolition of these pulses”.

From patent US5925618A, “Peptides useful as somatostatin antagonists” (American Cyanamid Company, priority 1998, dated 1999)
